Numbered stars: 1 amine (or outer) side, 2 acyl side, 3 side chain; on linkers, the order of the positions; unused ones are H or OH. Bridge positions count the residues as written; N and C are the ends. Square brackets hold non-standard residues; d marks the D form. Peptide text beside a SMILES is read from it. * marks the point of attachment. hPhe(3-Cl-4-CF3) = N[C@@H](CCc1ccc(C(F)(F)F)c(Cl)c1)C(=O)O; X52 = CN([C@@H](Cc1ccccc1OC(F)(F)F)C(=O)[*:2])[*:1]; NMePhe(4-Cl) = CN[C@@H](Cc1ccc(Cl)cc1)C(=O)O; NMePhe(3-Me) = CN[C@@H](Cc1cccc(C)c1)C(=O)O; NMePhe(3-F) = CN[C@@H](Cc1cccc(F)c1)C(=O)O; NMeGly(cPent) = CN[C@H](C(=O)O)C1CCCC1; Phe(3-I) = N[C@@H](Cc1cccc(I)c1)C(=O)O; NMeCha = CN[C@@H](CC1CCCCC1)C(=O)O; NMeD = CN[C@@H](CC(=O)O)C(=O)O; NMeL = CN[C@@H](CC(C)C)C(=O)O; NPrAla = CCCN[C@@H](C)C(=O)O; NMeV = CN[C@H](C(=O)O)C(C)C; d(β3hA) = C[C@@H](N)CC(=O)O; NMeA = CN[C@@H](C)C(=O)O; Nle = CCCC[C@H](N)C(=O)O; Piperidide = C1CCN(*)CC1; dNMeA = CN[C@H](C)C(=O)O; Ac5c = NC1(C(=O)O)CCCC1; Aze = O=C(O)[C@@H]1CCN1; NBuGly = CCCCNCC(=O)O; NPrGly = CCCNCC(=O)O; Sar = CNCC(=O)O
These molecules were tested on Human pancreatic cancer cell line AsPC-1 (G12D mutation Kras) (assay: AsPC-1 cell growth inhibition (AsPC-1 CGI)). Conditions: read-out: AsPC-1 cell growth inhibition, 50% growth inhibitory concentration (IC50 value); 96 hours, CellTiter-Glo, values classified in ranges.
Format: cell-based
Experimental: Test compounds were serially dilated with dimethyl sulfoxide, and 200 nL was then dispensed to a U-bottom 96-well plate using Labcyte Echo. […] The cell suspension was dispensed to a. plate containing a test compound at 100 μL per well and incubated at 37° C. in a 5% carbon dioxide gas incubator. 96 hours later, 80 μL of CellTiter-Glo (Promega) was added to each well and fluorescence was measured.
In the case of CC[C@H](C)[C@@H]1NC(=O)[C@H](CC(C)C)N(C)C(=O)C[C@@H](C(=O)N(C)C)N(C)C(=O)[C@H](C2CCCC2)N(C)C(=O)C2(CCCC2)NC(=O)[C@H](Cc2cccc(F)c2)N(C)C(=O)[C@H](CCc2ccc(C(F)(F)F)c(Cl)c2)NC(=O)CN(C)C(=O)[C@H](CC2CCCCC2)N(C)C(=O)[C@@H]2CCN2C(=O)[C@H](C)N(C)C1=O [Compound 95] ([NMeL]I[NMeA][Aze][NMeCha][Sar][hPhe(3-Cl-4-CF3)][NMePhe(3-F)][Ac5c][NMeGly(cPent)][NMeD]-NMe2; lactam N-11), the IC50 is reported as > 500 nM. With CC[C@H](C)[C@@H]1NC(=O)[C@H](CC(C)C)N(C)C(=O)C[C@@H](C(=O)N(C)C)N(C)C(=O)[C@H](C2CCCC2)N(C)C(=O)[C@H](C(C)C)NC(=O)[C@H](C)N(C)C(=O)[C@H](CCc2ccc(C(F)(F)F)c(Cl)c2)NC(=O)CN(C)C(=O)[C@H](CC2CCCCC2)N(C)C(=O)[C@@H]2CCN2C(=O)[C@H](C)N(C)C1=O [Compound 102] ([NMeL]I[NMeA][Aze][NMeCha][Sar][hPhe(3-Cl-4-CF3)][NMeA]V[NMeGly(cPent)][NMeD]-NMe2; lactam N-11) the IC50 was > 500 nM. With CC[C@H](C)[C@@H]1NC(=O)[C@H](C)N(C)C(=O)C[C@@H](C)NC(=O)[C@H](C2CCCC2)N(C)C(=O)C2(CCCC2)NC(=O)[C@@H]2CCCN2C(=O)[C@H](CCc2ccc(C(F)(F)F)c(Cl)c2)NC(=O)[C@@H](C)N(C)C(=O)[C@H](C(C)C)N(C)C(=O)CN(C)C(=O)CN(C)C1=O [Compound 109] (cyclo([Ac5c][NMeGly(cPent)][d(β3hA)][NMeA]I[Sar][Sar][NMeV][dNMeA][hPhe(3-Cl-4-CF3)]P)) the IC50 was > 500 nM. In the case of CCCC[C@@H]1NC(=O)[C@H](Cc2cccc(I)c2)NC(=O)CN(C)C(=O)[C@H](Cc2ccc(Cl)cc2)N(C)C(=O)CN(C)C(=O)CN(C)C(=O)[C@H]([C@@H](C)CC)NC(=O)[C@H](CC(C)C)N(C)C(=O)C[C@@H](C(=O)N2CCCCC2)N(C)C(=O)[C@H](CC(C)C)NC(=O)[C@H](Cc2ccccc2OC(F)(F)F)N(C)C1=O [Compound 111] ([NMeL]I[Sar][Sar][NMePhe(4-Cl)][Sar][Phe(3-I)][Nle][X52]L[NMeD]-Piperidide; lactam N-11), the IC50 is reported as > 500 nM. With CCCN1C(=O)C[C@@H](C)NC(=O)[C@H](C(C)C)N(C)C(=O)C2(CCCC2)NC(=O)[C@@H]2CCCN2C(=O)[C@H](CCc2ccc(C(F)(F)F)c(Cl)c2)NC(=O)CN(C)C(=O)[C@H](CC2CCCCC2)N(C)C(=O)CN(C)C(=O)CN(C)C(=O)[C@H]([C@@H](C)CC)NC(=O)[C@@H]1C [Compound 114] (cyclo([Ac5c][NMeV][d(β3hA)][NPrAla]I[Sar][Sar][NMeCha][Sar][hPhe(3-Cl-4-CF3)]P)) the IC50 was > 500 nM. For CCCN1CC(=O)N(C)CC(=O)N(C)[C@@H](CC2CCCCC2)C(=O)N(C)CC(=O)N[C@@H](CCc2ccc(C(F)(F)F)c(Cl)c2)C(=O)N2CCC[C@H]2C(=O)NC2(CCCC2)C(=O)N(C)[C@@H](C(C)C)C(=O)N[C@H](C)CC(=O)N(C)[C@@H](CC(C)C)C(=O)N[C@@H]([C@@H](C)CC)C1=O [Compound 116] (cyclo([Ac5c][NMeV][d(β3hA)][NMeL]I[NPrGly][Sar][NMeCha][Sar][hPhe(3-Cl-4-CF3)]P)), the IC50 was > 500 nM. CC[C@H](C)[C@@H]1NC(=O)[C@H](C)N(C)C(=O)C[C@@H](C)NC(=O)[C@H](C2CCCC2)N(C)C(=O)C2(CCCC2)NC(=O)[C@@H]2CCCN2C(=O)[C@H](CCc2ccc(C(F)(F)F)c(Cl)c2)NC(=O)[C@@H](C)N(C)C(=O)[C@H](Cc2cccc(C)c2)N(C)C(=O)[C@@H]2CCN2C(=O)[C@H](C)N(C)C1=O [Compound 117] (cyclo([Ac5c][NMeGly(cPent)][d(β3hA)][NMeA]I[NMeA][Aze][NMePhe(3-Me)][dNMeA][hPhe(3-Cl-4-CF3)]P)) was tested, and the IC50 was > 500 nM. With CCCCN1CC(=O)N(C)CC(=O)N(C)[C@@H](CC2CCCCC2)C(=O)N(C)CC(=O)N[C@@H](CCc2ccc(C(F)(F)F)c(Cl)c2)C(=O)N2CCC[C@H]2C(=O)NC2(CCCC2)C(=O)N(C)[C@@H](C(C)C)C(=O)N[C@H](C)CC(=O)N(C)[C@@H](CC(C)C)C(=O)N[C@@H]([C@@H](C)CC)C1=O [Compound 123] (cyclo([Ac5c][NMeV][d(β3hA)][NMeL]I[NBuGly][Sar][NMeCha][Sar][hPhe(3-Cl-4-CF3)]P)) the IC50 was > 500 nM.

Reference: US20240148821A1, “PHARMACEUTICAL USE OF CYCLIC PEPTIDE COMPOUND” (CHUGAI SEIYAKU KABUSHIKI KAISHA, priority 2021, published 2024)
